{"source": "patent US5969017A", "about": "“Methods of treating or preventing cardiac arrhythmia” (Merck & Co., Inc., priority 1997, dated 1999)", "origin": "cited, not measured here", "key": {"[1]": {"target": "T1, IKs (Cavia porcellus, UniProt O70344)", "T1 construct": "Guinea pig ventricular myocytes were isolated; endogenous in cells; host or cells: isolated guinea pig ventricular myocytes", "T1 sequence (O70344 whole entry)": "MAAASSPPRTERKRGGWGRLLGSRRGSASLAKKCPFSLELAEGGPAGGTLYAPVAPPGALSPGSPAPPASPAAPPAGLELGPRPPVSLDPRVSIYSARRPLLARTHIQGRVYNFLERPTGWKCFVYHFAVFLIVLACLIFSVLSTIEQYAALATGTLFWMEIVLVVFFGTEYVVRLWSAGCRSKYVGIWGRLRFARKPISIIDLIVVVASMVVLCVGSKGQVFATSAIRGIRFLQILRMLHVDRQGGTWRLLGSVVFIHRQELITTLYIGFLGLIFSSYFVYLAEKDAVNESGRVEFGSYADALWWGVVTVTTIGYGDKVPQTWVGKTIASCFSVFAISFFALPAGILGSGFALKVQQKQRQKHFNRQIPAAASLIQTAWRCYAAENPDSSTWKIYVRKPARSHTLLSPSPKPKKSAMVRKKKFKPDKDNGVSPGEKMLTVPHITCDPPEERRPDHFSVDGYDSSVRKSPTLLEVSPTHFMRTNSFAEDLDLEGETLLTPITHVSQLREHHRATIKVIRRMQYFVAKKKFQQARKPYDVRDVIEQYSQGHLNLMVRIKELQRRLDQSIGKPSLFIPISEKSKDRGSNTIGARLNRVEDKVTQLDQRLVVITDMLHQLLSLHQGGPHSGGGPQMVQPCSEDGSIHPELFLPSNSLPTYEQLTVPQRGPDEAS", "T1 sequence (Q60409 whole entry partner)": "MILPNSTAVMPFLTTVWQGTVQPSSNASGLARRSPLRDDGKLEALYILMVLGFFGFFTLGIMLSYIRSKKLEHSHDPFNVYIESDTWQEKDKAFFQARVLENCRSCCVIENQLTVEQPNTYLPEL", "settings": "Balser et al., guinea pig ventricular myocytes; cited from earlier work"}, "[2]": {"tested_on": "INa", "settings": "background; cited from earlier work"}, "[3]": {"tested_on": "ICa", "settings": "background; cited from earlier work"}, "[4]": {"tested_on": "L-type Ca2+ channels", "settings": "Kass 1982; cited from earlier work"}, "[5]": {"tested_on": "K+ currents", "settings": "0.4 mM as printed; cited from earlier work"}, "[6]": {"tested_on": "IKr", "settings": "background; cited from earlier work"}}, "data": [{"smiles": "CCCCc1oc2ccccc2c1C(=O)c1cc(I)c(OCCN(CC)CC)c(I)c1", "note": "[amiodarone]", "values": [{"measurement": "block of IKs (in words)", "setting": "[1]", "value": "blocker of IKs"}, {"measurement": "block of INa (in words)", "setting": "[2]", "value": "blocks INa"}, {"measurement": "block of ICa (in words)", "setting": "[3]", "value": "blocks INa and ICa"}]}, {"smiles": "COC(=O)C1=C(C)NC(C)=C(C(=O)OCC(C)C)C1c1ccccc1[N+](=O)[O-]", "note": "(centres unmarked) [Nisoldipine]", "values": [{"measurement": "block of L-type Ca2+ channels (in words)", "setting": "[4]", "value": "relatively specific blocker"}, {"measurement": "effect on K+ currents (in words)", "setting": "[5]", "value": "no effect on K^+ currents"}]}, {"smiles": "CC(C)NC[C@@H](O)c1ccc(NS(C)(=O)=O)cc1", "note": "[d-sotalol]", "values": [{"measurement": "block of IKr (in words)", "setting": "[6]", "value": "predominantly, if not exclusively, block IKr"}]}, {"smiles": "CS(=O)(=O)Nc1ccc2c(c1)C(O)CC1(CCN(C3CCc4cc(C#N)ccc4C3)CC1)O2", "note": "(single isomer, unassigned) [MK-499, methanesulfonamide--N--[1'-6-cyano-1,2,3,4-tetrahydro-2-naphthalenyl)-3,4-dihydro-4-hydroxyspiro[2H-1-benzopyran-2,4'-piperidin]-6yl], (+)-, monochloride]", "values": [{"measurement": "block of IKr (in words)", "setting": "[6]", "value": "predominantly, if not exclusively, block IKr"}]}, {"smiles": "CN(CCOc1ccc(NS(C)(=O)=O)cc1)CCc1ccc(NS(C)(=O)=O)cc1", "note": "[dofetilide]", "values": [{"measurement": "block of IKr (in words)", "setting": "[6]", "value": "predominantly, if not exclusively, block IKr"}]}]}
